# Measured values taken from patent publication US20240158438A1, “POLYPEPTIDE COMPOUND AND APPLICATION THEREOF” (CHENGDU SINTANOVO BIOTECHNOLOGY CO., LTD., priority 2021, published 2024).
# Non-standard residues stand in square brackets, D forms with d. Residues, ends and D or L forms follow the SMILES beside them. *: point of attachment. dBta = N[C@H](Cc1csc2ccccc12)C(=O)O; X1 = N[C@H]1CCC[C@H]1C(=O)*; dAbu = CC[C@@H](N)C(=O)O; Api = NC1(C(=O)O)CCNCC1; Abu = CC[C@H](N)C(=O)O; X3 = NCC1(C(=O)*)CCC1; βAla = NCCC(=O)O
# What was measured:
# CYP1A2 = CYP1A2 (Homo sapiens (Human), UniProt P05177); assay: in vitro; format: in vitro ADME; conditions: microsomes, 10 min
# Procedure: (§1) Human liver microsomes containing cytochrome P450 (0.253 mg/mL protein) were incubated with test compounds (0.05-50 μM), CYPs substrates (10 μM […], 5 μM diclofenac, 30 μM mephenytoin, 5 μM dextromethorphan hydrobromide and 2 μM midazolam) and 1.0 mM NADP at 37° C. for 10 min. Naphthoflavone, sulfaphenazole, N-3-benzylnirvanol, quinidine and ketoconazole were used as reference inhibitors.
# CYP 3A4 = CYP 3A4 (Homo sapiens (Human), UniProt P08684); format: in vitro ADME; conditions: microsomes, 10 min
# Procedure: as §1
# CYP 2C9 = CYP 2C9 (Homo sapiens (Human), UniProt P11712); format: in vitro ADME; conditions: microsomes, 10 min
# Procedure: as §1
# CYP 2D6 = CYP 2D6 (Homo sapiens (Human), UniProt P10635); format: in vitro ADME; conditions: microsomes, 10 min
# Procedure: as §1
# CYP 2C19 = CYP 2C19 (Homo sapiens (Human), UniProt P33261); format: in vitro ADME; conditions: microsomes, 10 min
# Procedure: as §1
# GHSR-1a = GHSR-1a (Homo sapiens (Human), UniProt Q92847); assay: Agonistic activity for GHSR-1a, FLIPR calcium assay; format: cell-based; conditions: agonist activity assay, Flp In-CHO-GHSR Stable Pool cells, FLIPR calcium 6 kit; read-out: The activity (IC50) of polypeptide compounds for GHSR-1a
# Description: The use of recombinant expression of GHSR provides several advantages; for example, the receptor can be expressed in a determined cell system, so that it is easier to distinguish between the reactions of the compounds with GHSR and the reactions with other receptors. For example, cell lines such as HEK293, COS7 and CHO that […] can be used to express GHSR, and the same cell lines without expression vectors are used as controls.
# The activity of GHSR-1a can be measured using different techniques, for example, by detecting the change in the intracellular conformation of GHSR, the change in G-protein coupling activity, and/or the change in intracellular messengers. Techniques such as measuring intracellular Ca^2+ are preferably used to measure the activity of GHSR-1a. Examples of techniques known in the art that can be used to measure Ca^2+ include the use of FLIPR® calcium ion assay kits, among others. The FLIPR® calcium ion assay kits use a calcium ion sensitive indicator and a masking dye to ensure that a researcher carries out high-sensitivity fluorescent screening for G protein-coupled receptors, ion channels and other calcium ion sensitive targets. This experiment used FLIPR calcium 6 assay kits and FLIPR calcium 6-QF assay kits.
# • a) Cell line: Flp In-CHO-GHSR Stable Pool; • b) Complete medium: F12K+10% fetal bovine serum+1×penicillin-streptomycin (PS)+600 μg/mL hygromycin B; • c) Cell seeding medium: F12K+10% fetal bovine serum. • d) Assay buffer: 1× HBSS+20 mM HEPES. • e) […] component A: Assay buffer and component A were left at room temperature (RT), 10 mL of buffer was added to component A, and the mixture was vortexed for 1-2 min and stored at −20° C.
# • a) Compound stock solutions: the powders from in-house synthesis were made into 10 mM stock solutions in DMSO according to the standard protocol. • b) Compound storage: all compounds in DMSO were stored in room temperature desiccators for short-term storage (at most 4 months). The remaining compounds were left at −20 ° C. for long-term storage.
# • a) Flp In-CHO-GHSR Stable Pool cells were cultured in complete medium. • b) The cells were placed in […] cell seeding medium in a 384-well cell culture plate (Corning, 3764) at 7k cells/well and cultured overnight at 37° C. with 5% CO2. • c) 20× component A was thawed at room temperature, diluted with assay buffer to 2×, and left at RT. • d) The Petri dish was taken out of the incubator and equilibrated at room temperature for 10 min. The medium was changed to […]. After the final wash, 20 μL of buffer was kept in each well, 20 μL of 2× component A was then added to each well, and the plate was incubated at 37° C. for 3-5 s. • e) 10 μL of 5× compound was added to the 384-well cell culture plate, and data collection was immediately performed using FLIPR Tetra.
# • 1) Z′ factor=1−3×(SDMax+SDMin)/(MeanMax−MeanMin); • 2) CVMax=(SDMax/MeanMax)×100%; • 3) CVMin=(SDMin/MeanMin)×100%; • 4) S/B=Singal/Background; • 5) Calculation formula for IC50: • Y=Bottom+(Top−Bottom)/(1+10^((LogIC50−X)×HillSlope)) • X: log value of compound concentration; Y: Activation % or Inhibition %
# Sequence of CYP1A2 (P05177 whole entry): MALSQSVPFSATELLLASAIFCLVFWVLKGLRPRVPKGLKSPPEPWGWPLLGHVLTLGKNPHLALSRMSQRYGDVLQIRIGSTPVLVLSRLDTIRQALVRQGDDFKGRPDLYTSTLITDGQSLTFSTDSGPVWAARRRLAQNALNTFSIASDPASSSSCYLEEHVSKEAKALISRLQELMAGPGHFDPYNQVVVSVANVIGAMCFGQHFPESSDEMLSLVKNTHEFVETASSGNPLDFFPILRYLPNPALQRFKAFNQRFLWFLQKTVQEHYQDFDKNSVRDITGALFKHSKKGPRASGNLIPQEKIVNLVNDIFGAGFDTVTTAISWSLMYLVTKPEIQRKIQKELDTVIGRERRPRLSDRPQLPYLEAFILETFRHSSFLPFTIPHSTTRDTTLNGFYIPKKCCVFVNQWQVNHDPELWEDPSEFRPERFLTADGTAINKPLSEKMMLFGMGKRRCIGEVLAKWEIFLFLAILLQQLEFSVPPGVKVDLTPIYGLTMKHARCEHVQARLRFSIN
# Sequence of CYP 3A4 (P08684 whole entry): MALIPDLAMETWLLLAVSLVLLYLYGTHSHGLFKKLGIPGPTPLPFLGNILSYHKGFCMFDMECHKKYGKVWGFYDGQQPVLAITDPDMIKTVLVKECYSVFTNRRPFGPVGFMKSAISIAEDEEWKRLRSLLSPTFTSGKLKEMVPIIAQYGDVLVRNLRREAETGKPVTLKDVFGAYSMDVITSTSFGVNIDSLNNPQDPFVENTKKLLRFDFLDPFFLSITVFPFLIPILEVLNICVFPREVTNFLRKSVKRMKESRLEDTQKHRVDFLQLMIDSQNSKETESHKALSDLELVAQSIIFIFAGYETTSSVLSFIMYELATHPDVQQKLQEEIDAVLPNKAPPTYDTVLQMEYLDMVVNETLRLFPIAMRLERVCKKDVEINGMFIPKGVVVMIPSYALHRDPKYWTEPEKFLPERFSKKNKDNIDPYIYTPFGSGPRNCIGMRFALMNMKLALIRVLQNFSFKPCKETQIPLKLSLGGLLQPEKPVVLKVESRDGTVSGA
# Sequence of CYP 2C19 (P33261 whole entry): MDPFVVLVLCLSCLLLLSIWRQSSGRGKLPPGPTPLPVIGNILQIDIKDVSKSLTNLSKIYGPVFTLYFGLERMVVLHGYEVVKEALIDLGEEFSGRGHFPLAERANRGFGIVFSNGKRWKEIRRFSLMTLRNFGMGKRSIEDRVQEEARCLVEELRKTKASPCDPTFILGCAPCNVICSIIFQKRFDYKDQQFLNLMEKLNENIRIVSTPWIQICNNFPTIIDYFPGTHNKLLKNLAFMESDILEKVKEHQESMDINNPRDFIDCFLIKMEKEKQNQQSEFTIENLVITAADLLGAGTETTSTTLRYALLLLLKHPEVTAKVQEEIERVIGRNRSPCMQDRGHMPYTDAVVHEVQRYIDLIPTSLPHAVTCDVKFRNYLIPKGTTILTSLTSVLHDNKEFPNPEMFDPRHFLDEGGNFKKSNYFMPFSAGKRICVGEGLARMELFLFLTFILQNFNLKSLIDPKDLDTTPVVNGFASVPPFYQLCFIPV
# Sequence of CYP 2D6 (P10635 whole entry): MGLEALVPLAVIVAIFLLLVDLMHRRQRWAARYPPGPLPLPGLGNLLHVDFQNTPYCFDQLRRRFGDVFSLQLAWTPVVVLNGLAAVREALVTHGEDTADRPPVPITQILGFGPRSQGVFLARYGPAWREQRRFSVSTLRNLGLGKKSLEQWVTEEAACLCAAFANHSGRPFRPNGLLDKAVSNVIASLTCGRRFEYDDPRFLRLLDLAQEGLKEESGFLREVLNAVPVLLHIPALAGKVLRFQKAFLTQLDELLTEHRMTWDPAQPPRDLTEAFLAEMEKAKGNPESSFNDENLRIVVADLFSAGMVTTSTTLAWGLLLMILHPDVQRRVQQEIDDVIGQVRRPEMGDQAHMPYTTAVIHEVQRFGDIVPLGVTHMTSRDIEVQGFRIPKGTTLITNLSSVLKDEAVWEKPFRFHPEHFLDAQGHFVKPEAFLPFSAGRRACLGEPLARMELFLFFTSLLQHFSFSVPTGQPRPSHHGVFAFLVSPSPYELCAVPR
# Sequence of GHSR-1a (Q92847 whole entry): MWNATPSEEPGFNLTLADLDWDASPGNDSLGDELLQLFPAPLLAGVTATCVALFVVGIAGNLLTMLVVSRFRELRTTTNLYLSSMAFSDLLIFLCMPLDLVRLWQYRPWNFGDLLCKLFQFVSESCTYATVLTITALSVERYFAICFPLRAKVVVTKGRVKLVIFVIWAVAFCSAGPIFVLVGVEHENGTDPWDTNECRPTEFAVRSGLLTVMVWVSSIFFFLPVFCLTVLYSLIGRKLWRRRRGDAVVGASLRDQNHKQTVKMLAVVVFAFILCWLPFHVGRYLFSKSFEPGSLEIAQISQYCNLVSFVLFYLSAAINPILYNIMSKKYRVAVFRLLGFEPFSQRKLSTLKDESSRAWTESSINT
# Sequence of CYP 2C9 (P11712 whole entry): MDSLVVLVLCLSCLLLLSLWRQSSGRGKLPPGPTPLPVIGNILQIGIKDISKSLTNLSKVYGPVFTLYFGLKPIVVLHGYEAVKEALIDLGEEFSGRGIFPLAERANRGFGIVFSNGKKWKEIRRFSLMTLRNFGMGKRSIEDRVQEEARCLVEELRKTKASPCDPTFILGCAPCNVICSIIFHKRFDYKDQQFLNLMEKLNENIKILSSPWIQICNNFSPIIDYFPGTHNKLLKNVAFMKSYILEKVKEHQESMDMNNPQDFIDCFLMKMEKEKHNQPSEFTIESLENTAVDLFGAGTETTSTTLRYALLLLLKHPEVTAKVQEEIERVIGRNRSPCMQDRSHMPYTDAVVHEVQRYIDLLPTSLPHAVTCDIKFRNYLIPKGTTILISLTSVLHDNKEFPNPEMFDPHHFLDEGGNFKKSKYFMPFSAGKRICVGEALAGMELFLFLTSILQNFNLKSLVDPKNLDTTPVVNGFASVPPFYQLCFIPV
Structure (SMILES),IC50 (CYP1A2) [µM],IC50 (CYP 3A4) [µM],IC50 (CYP 2C9) [µM],IC50 (CYP 2D6) [µM],IC50 (CYP 2C19) [µM],IC50 (GHSR-1a) [nM]
CC[C@H](N)C(=O)N[C@H](Cc1csc2ccccc12)C(=O)N[C@H](Cc1c[nH]c2ccccc12)C(=O)N[C@@H](Cc1ccccc1)C(=O)NC1(C(N)=O)CCNCC1 [Compound 3] (H-[Abu][dBta][dW]F[Api]-NH2),> 50,> 50,> 50,> 50,> 50,17.2
C[C@@H](N)C(=O)N[C@H](Cc1csc2ccccc12)C(=O)N[C@H](Cc1c[nH]c2ccccc12)C(=O)N[C@@H](Cc1ccccc1)C(=O)NC1(C(N)=O)CCNCC1 [Compound 12] (H-[dA][dBta][dW]F[Api]-NH2),> 50,> 50,> 50,> 50,> 50,53.7
CC(C)[C@@H](N)C(=O)N[C@H](Cc1csc2ccccc12)C(=O)N[C@H](Cc1c[nH]c2ccccc12)C(=O)N[C@@H](Cc1ccccc1)C(=O)NC1(C(N)=O)CCNCC1 [Compound 13] (H-[dV][dBta][dW]F[Api]-NH2),> 50,> 50,> 50,> 50,> 50,43.5
CC(C)C[C@@H](N)C(=O)N[C@H](Cc1csc2ccccc12)C(=O)N[C@H](Cc1c[nH]c2ccccc12)C(=O)N[C@@H](Cc1ccccc1)C(=O)NC1(C(N)=O)CCNCC1 [Compound 14] (H-[dL][dBta][dW]F[Api]-NH2),> 50,> 50,> 50,> 50,> 50,33.2
NC(=O)C1(NC(=O)[C@H](Cc2ccccc2)NC(=O)[C@@H](Cc2c[nH]c3ccccc23)NC(=O)[C@@H](Cc2csc3ccccc23)NC(=O)[C@@H]2CCCN2)CCNCC1 [Compound 15] (H-P[dBta][dW]F[Api]-NH2),> 50,8.82,> 50,31.1,> 50,2.3

# Second part, the molecule after the results:
IC50 (CYP1A2) [µM],IC50 (CYP 3A4) [µM],IC50 (CYP 2C9) [µM],IC50 (CYP 2D6) [µM],IC50 (CYP 2C19) [µM],IC50 (GHSR-1a) [nM],Structure (SMILES)
> 50,20,> 50,> 50,> 50,3.5,CC[C@@H](N)C(=O)N[C@H](Cc1csc2ccccc12)C(=O)N[C@H](Cc1c[nH]c2ccccc12)C(=O)N[C@@H](Cc1ccccc1)C(=O)NC1(C(N)=O)CCNCC1 [Compound 2] (H-[dAbu][dBta][dW]F[Api]-NH2)
> 50,33.4,> 50,> 50,> 50,20.3,NCC(=O)N[C@H](Cc1csc2ccccc12)C(=O)N[C@H](Cc1c[nH]c2ccccc12)C(=O)N[C@@H](Cc1ccccc1)C(=O)NC1(C(N)=O)CCNCC1 [Compound 11] (H-G[dBta][dW]F[Api]-NH2)
> 50,19.8,> 50,35.4,> 50,0.7,NCCC(=O)N[C@H](Cc1csc2ccccc12)C(=O)N[C@H](Cc1c[nH]c2ccccc12)C(=O)N[C@@H](Cc1ccccc1)C(=O)NC1(C(N)=O)CCNCC1 [Compound 16] (H-[βAla][dBta][dW]F[Api]-NH2)
> 50,> 50,> 50,> 50,> 50,23,NC(=O)C1(NC(=O)[C@H](Cc2ccccc2)NC(=O)[C@@H](Cc2c[nH]c3ccccc23)NC(=O)[C@@H](Cc2csc3ccccc23)NC(=O)[C@@H]2CCC[C@@H]2N)CCNCC1 [Compound 21] (X1-[dBta][dW]F[Api]-NH2)
> 50,> 50,> 50,> 50,> 50,2.3,NCC1(C(=O)N[C@H](Cc2csc3ccccc23)C(=O)N[C@H](Cc2c[nH]c3ccccc23)C(=O)N[C@@H](Cc2ccccc2)C(=O)NC2(C(N)=O)CCNCC2)CCC1 [Compound 22] (X3-[dBta][dW]F[Api]-NH2)
